Data on ten compounds can be found in PubChem BioAssay (NCI).

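48-hour exposure; five concentrations; linearly interpolated endpoints. TGI marks complete inhibition of growth.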

Among the test systems are COLO 205 colon; HCT-15 colon; HOP-62 NSCLC; KM12 colon; M14 melanoma; MALME-3M melanoma; MDA-MB-435; NCI/ADR-RES ovarian; SF-268 CNS; SK-MEL-5 melanoma; UACC-257 melanoma; UACC-62 melanoma; UO-31 renal; HOP-92 NSCLC; SNB-75 CNS.
Test in all cases: DTP human tumour cell line panel, 48 h

For orientation: TGI means the concentration at which net growth stops. The low end stands for greater sensitivity of the cells, the high end for lower sensitivity of the cells. Regarding `CCC(C=O)P1(=O)OC(C)(C)CN1C(C)(C)C` (centres undefined), the TGI in the assay on COLO 205 colon, in the assay on HCT-15 colon, in the assay with HOP-62 NSCLC, in the assay with KM12 colon, in the assay with M14 melanoma and in the assay with MALME-3M melanoma was greater than 100 µM each time. Moreover, the concentration for total growth inhibition (TGI) in the assay on MDA-MB-435, in the assay on NCI/ADR-RES ovarian, in the assay with SF-268 CNS, in the assay with SK-MEL-5 melanoma, in the assay with UACC-257 melanoma and with UACC-62 melanoma was greater than 100 µM each time. The compound also gave a concentration for total growth inhibition (TGI) in the assay with UO-31 renal greater than 100 µM.

On to `CCC(CCCN)Nc1cc(OC)cc2c(C)ccnc12` (centres undefined), for which the TGI with COLO 205 colon worked out at 47.5 µM; with HCT-15 colon it was 58.4 µM; in the assay on HOP-62 NSCLC, 29.2 µM; with HOP-92 NSCLC it was 30.6 µM; in the assay with KM12 colon, 29 µM; in the assay with M14 melanoma, 29.3 µM. Moreover, the TGI is 50.4 µM in the assay on MALME-3M melanoma; 28 µM in the assay with MDA-MB-435; 76.4 µM in the assay with NCI/ADR-RES ovarian; 31.6 µM with SF-268 CNS; 31.6 µM in the assay with SK-MEL-5 melanoma; 25.3 µM with SNB-75 CNS. Further, the concentration for total growth inhibition (TGI) was determined as 33.7 µM with UACC-257 melanoma and 25.6 µM in the assay with UO-31 renal.

For `O=C(c1ccccc1)c1ccc2nc(-c3c(Cl)c(Cl)c(Cl)c(Cl)c3C(=O)N/N=C/c3ccc(Cl)cc3)[nH]c2c1`, the TGI with COLO 205 colon, in the assay on HCT-15 colon, in the assay on HOP-62 NSCLC, with HOP-92 NSCLC, in the assay with KM12 colon and in the assay on M14 melanoma was greater than 100 µM throughout. For the same compound, the TGI was greater than 100 µM in the assay on MALME-3M melanoma; greater than 100 µM in the assay on MDA-MB-435; greater than 100 µM in the assay on NCI/ADR-RES ovarian; greater than 100 µM in the assay on SF-268 CNS; 45.7 µM in the assay on SK-MEL-5 melanoma; greater than 100 µM in the assay with SNB-75 CNS. For the same compound, the TGI in the assay with UACC-257 melanoma and in the assay on UO-31 renal was greater than 100 µM in each case.

For the compound `Cc1cc(C)c(-n2[nH]c(=O)n(C)c2=O)c(C)c1`, the TGI with COLO 205 colon, with HCT-15 colon, in the assay on KM12 colon, with M14 melanoma, in the assay on MALME-3M melanoma and in the assay on MDA-MB-435 was greater than 100 µM in each case. In addition, the total growth inhibition concentration (TGI) with NCI/ADR-RES ovarian, in the assay on SF-268 CNS, in the assay with SK-MEL-5 melanoma, with SNB-75 CNS, with UACC-257 melanoma and in the assay with UACC-62 melanoma was greater than 100 µM throughout. Besides, the TGI in the assay with UO-31 renal is greater than 100 µM.

As for `CNC(=O)C1(N)c2ccccc2C=Cc2ccccc21`, the TGI with COLO 205 colon, in the assay on HCT-15 colon, with HOP-62 NSCLC, with HOP-92 NSCLC, in the assay on KM12 colon and in the assay with M14 melanoma was greater than 100 µM each time. Further, the TGI with MALME-3M melanoma, in the assay with MDA-MB-435, in the assay on NCI/ADR-RES ovarian, in the assay on SF-268 CNS, in the assay on SK-MEL-5 melanoma and in the assay on UACC-62 melanoma was greater than 100 µM throughout. In the assay with UO-31 renal, this compound came in with a concentration for total growth inhibition (TGI) greater than 100 µM.

In the case of `Nc1n[n+](CC(=O)c2ccccc2)c2sc(-c3ccccc3)nn12`, the TGI with COLO 205 colon, with HCT-15 colon, with HOP-62 NSCLC, in the assay with KM12 colon, in the assay with M14 melanoma and with MALME-3M melanoma was greater than 100 µM throughout. The TGI with MDA-MB-435, with NCI/ADR-RES ovarian, with SF-268 CNS, with SK-MEL-5 melanoma, in the assay with SNB-75 CNS and with UACC-257 melanoma was greater than 100 µM in each case. Further, the TGI is 82.7 µM in the assay with UACC-62 melanoma and greater than 100 µM in the assay on UO-31 renal.

Regarding `COC1/C=C/C(C)C(C(C)C(OC)C(C)CCC(=O)C(C)C(C/C=C/N(C)C=O)OC)OC(=O)C=CC2OC2(C)CC(OC)C(OC)C2=CC(=O)O[C@@H](C(C)C(OC)CC(OC)/C=C/C(C)C(O)C1)[C@H]2O` (some centres undefined), the TGI in the assay with HOP-62 NSCLC was 0.0227 µM; in the assay with HOP-92 NSCLC, 0.0235 µM; in the assay on M14 melanoma, 0.00985 µM; with MALME-3M melanoma, 0.854 µM; with MDA-MB-435, greater than 1.24 µM; in the assay on NCI/ADR-RES ovarian, 0.263 µM. The TGI in the assay on SF-268 CNS was 0.0186 µM; in the assay on SK-MEL-5 melanoma, 0.0284 µM; in the assay on UACC-257 melanoma, 0.0492 µM; in the assay with UACC-62 melanoma, 0.0514 µM; in the assay with UO-31 renal, 0.00831 µM.

Take `CN(C)CCCN1c2ccccc2Sc2ccc3ccccc3c21`: the TGI in the assay with COLO 205 colon stood at 10 µM; in the assay with HCT-15 colon it was 19.2 µM; in the assay on HOP-62 NSCLC it was 24.8 µM; in the assay on HOP-92 NSCLC, 21 µM; in the assay on KM12 colon, 19.3 µM; in the assay on M14 melanoma it was 3.3 µM. Also, the TGI in the assay on MALME-3M melanoma was 21.6 µM; in the assay with MDA-MB-435 it was 10.4 µM; in the assay with NCI/ADR-RES ovarian it was 22.5 µM; in the assay with SF-268 CNS, 23.4 µM; in the assay with SK-MEL-5 melanoma, 8.21 µM; in the assay with UACC-257 melanoma it was 4.1 µM. Besides, the TGI was found to be 9.62 µM in the assay with UACC-62 melanoma and 17 µM with UO-31 renal.

As to `O=S1(=O)OCCOS(=O)(=O)C1(F)Br`, the TGI with COLO 205 colon, in the assay with HCT-15 colon, in the assay on HOP-62 NSCLC, in the assay on KM12 colon, with M14 melanoma and in the assay with MALME-3M melanoma was greater than 100 µM throughout. Also, the total growth inhibition concentration (TGI) in the assay on MDA-MB-435, in the assay with NCI/ADR-RES ovarian, with SF-268 CNS, in the assay with SK-MEL-5 melanoma, with SNB-75 CNS and with UACC-257 melanoma was greater than 100 µM each time. Also, the TGI in the assay with UACC-62 melanoma and in the assay with UO-31 renal was greater than 100 µM throughout.

Take `O=C1OCC2OC(=O)c3cc(O)c(O)c(O)c3-c3c(O)c(O)c(O)c4c3C(=O)OC(C2OC(=O)c2cc(O)c(O)c(O)c2-c2c1cc(O)c(O)c2O)C1OC(=O)c2c-4c(O)c(O)c(O)c2[C@@H]1C(O)C(O)C(O)C(O)CO` (some centres undefined): the TGI with COLO 205 colon came to 30.4 µM; with HCT-15 colon, 37.7 µM; with HOP-62 NSCLC, 34 µM; with HOP-92 NSCLC, 45.8 µM; in the assay on KM12 colon, 52.3 µM; in the assay with M14 melanoma, 39.4 µM. Moreover, the TGI came to 38.9 µM in the assay with MALME-3M melanoma; 21.9 µM with MDA-MB-435; 66.1 µM with NCI/ADR-RES ovarian; 47.4 µM in the assay on SF-268 CNS; 28 µM with SK-MEL-5 melanoma; 46.7 µM in the assay with UACC-257 melanoma. The total growth inhibition concentration (TGI) with UACC-62 melanoma is 36.7 µM; in the assay with UO-31 renal it was 33.8 µM.
